This note sets out measurements from patent publication US11291655B2, “RAD51 inhibitors” (Cyteir Therapeutics, Inc., priority 2017, dated 2022).

The experiment has as its system Daudi Cell Culture. Kind of experiment: Compound primary screening in Daudi cell culture. The class given is cell-based. As to conditions: Homo sapiens, 168 h; Daudi cells, 1250 cells per well, reads on Day 7. The gist of the method: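 Daudi cells seeded at 1250 cells per well in 130 ul medium at 37° C. and treated with serially diluted compounds added from a media master plate; read on Day 7.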
As to `COC(=O)[C@H](Cc1ccccc1)NS(=O)(=O)c1cc(NC(C)=O)ccc1-c1cnc(-c2ccc(NC(=S)NC(C)C)cc2)s1` [Compound D1], the EC50 is above 10 µM.

`CC(C)NC(=S)Nc1ccc(-c2ncc(-c3ccc(NC(=O)NCc4cnc[nH]4)cc3S(=O)(=O)NC(C)(C)C)s2)cc1` [Compound N6] returned an EC50 below 10 µM. As for `Cc1cc(NC(=O)OC(C)C)ccc1-c1ncc(-c2ccc(NC(=O)OC(C)C)cc2S(=O)(=O)NC(C)(C)C)s1` [Compound R1], the figure is below 1 µM.

With `CC(C)NC(=S)Nc1ccc(-c2ncc(-c3ccc(N4CCN(Cc5ccccc5)C4=O)cc3S(=O)(=O)NC(C)(C)C)s2)cc1` [Compound J22], the EC50 was above 10 µM. As for `COC(=O)CNS(=O)(=O)c1cc(NC(C)=O)ccc1-c1cnc(-c2ccc(NC(=S)NC(C)C)cc2)s1` [Compound D20], the figure is above 10 µM; as for `CC(C)OC(=O)Nc1ccc(-c2ncc(-c3ccc(NC(=O)C(C)C)cc3S(=O)(=O)NC(C)(C)C)s2)cc1` [Compound H10], below 1 µM; as for `CC(C)OC(=O)Nc1ccc(-c2ncc(-c3ccc(NC(=O)NC(C)c4ccccc4)cc3S(=O)(=O)NC(C)(C)C)s2)cc1` (stereo not drawn) [Compound C1], below 1 µM. `CC(C)OC(=O)N(C)c1ccc(-c2ncc(-c3ccc(N4CCCC4=O)cc3S(=O)(=O)NC(C)(C)C)s2)cc1` [Compound J8, isopropyl N-[4-[5-[2-(tert-butylsulfamoyl)-4-(2-oxopyrrolidin-1-yl)phenyl]thiazol-2-yl]phenyl]-N-methyl-carbamate] yielded an EC50 below 10 µM. As for `CC(=O)Nc1ccc(-c2cnc(-c3ccc(NC(=S)NC(C)C)cc3)s2)c(S(=O)(=O)NCCO)c1` [Compound D28], the figure is above 10 µM; as for `CC(=O)Nc1ccc(-c2cnc(-c3ccc(NC(=S)NC(C)C)cc3)s2)c(S(=O)(=O)NCCN(C)C)c1` [Compound D16], above 10 µM. The result for `CCC(=O)Nc1ccc(-c2cnc(-c3ccc(NC(=O)OC(C)C)cc3)s2)c(S(=O)(=O)NC(C)(C)C)c1` [Compound H4] reads below 1 µM; that for `Cn1ccnc1Nc1ccc(-c2cnc(-c3ccc(N)cc3)s2)c(S(=O)(=O)NC(C)(C)C)c1` [Compound E16], above 10 µM.

Turning to `CC(=O)NCc1ccc(-c2cnc(-c3ccc(NC(=O)OC(C)C)cc3)s2)c(S(=O)(=O)NC(C)(C)C)c1` [Compound Q1, isopropyl N-[4-[5-[4-(acetamidomethyl)-2-(tert-butylsulfamoyl)phenyl]thiazol-2-yl]phenyl]carbamate], the EC50 was below 10 µM. As for `CCOC(=O)Nc1ccc(-c2cnc(-c3ccc(NC(=O)OC(C)C)cc3)s2)c(S(=O)(=O)NC(C)(C)C)c1` [Compound H6], the EC50 was below 1 µM. As for `CCNS(=O)(=O)c1cc(NC(C)=O)ccc1-c1cnc(-c2ccc(NC(=S)NC(C)C)cc2)s1` [Compound D9], the figure is above 10 µM; as for `CC(C)OC(=O)Nc1ccc(-c2ncc(-c3ccc(NC(=O)OCC4CCCCC4)cc3S(=O)(=O)NC(C)(C)C)s2)cc1` [Compound B10], below 1 µM; as for `CC(=O)N(C)c1ccc(-c2cnc(-c3ccc(NC(=S)NC(C)C)cc3)s2)c(S(=O)(=O)NC(C)(C)C)c1` [Compound E15], above 10 µM.

Turning to `C/C=C/COC(=O)Nc1ccc(-c2cnc(-c3ccc(NC(=O)OC(C)C)cc3)s2)c(S(=O)(=O)NC(C)(C)C)c1` [Compound B12], the EC50 is below 1 µM. As for `C=C(C)COC(=O)Nc1ccc(-c2cnc(-c3ccc(NC(=O)OC(C)C)cc3)s2)c(S(=O)(=O)NC(C)(C)C)c1` [Compound B5], the figure is below 1 µM; as for `CC(C)OC(=O)NCc1ccc(-c2cnc(-c3ccc(NC(=O)OC(C)C)cc3)s2)c(S(=O)(=O)NC(C)(C)C)c1` [Compound P9], above 10 µM; as for `CC(=O)Nc1ccc(-c2cnc(-c3ccc(NCC(C)(C)O)cc3)s2)c(S(=O)(=O)NC(C)(C)C)c1` [Compound J12, N-[3-(tert-butylsulfamoyl)-4-[2-[4-[(2-hydroxy-2-methyl-propyl)amino]phenyl]thiazol-5-yl]phenyl]acetamide], above 10 µM.
